PubChem BioAssay AID1963980 (Molecular Pharmacology Branch, DTP, NCI, 2024)

Test system: 475296-252-R-J1-PDC spheroid viability
Assay: Anticancer human tumor 475296-252-R-J1-PDC patient-derived rectal carcinoma cell line growth inhibition [PI3K]
Settings: spheroids with HUVEC and MSC; for IC50: curve of first compound; for viability, T/C: stronger effect = lower value
Description: Combinatorial screen of targeted agents with the PI3K inhibitors inavolisib, alpelisib, duvelisib, and copanlisib in multi-cell type tumor spheroids
A high-throughput screen of multi-cell type tumor spheroids was designed to identify active combinations of targeted small molecules and PI3K pathway inhibitors. Complex spheroids include a stromal component modeled by human endothelial cells (HUVEC) and fibroblasts modeled by human mesenchymal stem cells (MSCs). The concentration ranges selected for each drug and investigational agent were based upon clinically achievable concentrations if the clinical Cmax of the agent was known.
Compounds. The drugs and investigational agents: inavolisib (NSC800729), alpelisib (NSC765974), duvelisib (NSC772469), copanlisib (NSC816437), ipatasertib (NSC767898), afuresertib (NSC778305), talazoparib (NSC767125), sapanisertib (NSC764658), selumetinib (NSC741078), tovorafenib (DAY101, NSC766906), vemurafenib (NSC761431), ravoxertinib (NSC781343), sotorasib (NSC818433), MRTX1133 (NSC 836407), abemaciclib (NSC 768073), palbociclib (NSC758247), venetoclax (NSC 766270), SY5609 (NSC837396), enzalutamide (NSC755605), and darolutamide (NSC825331), were obtained from the National Cancer Institute (NCI) Developmental Therapeutics Program Chemical Repository. The FDA-approved anticancer drug set is available from the NCI Developmental Therapeutics Program. […] The stock solutions were prepared in dimethyl sulfoxide (DMSO, Sigma-Aldrich, St. Louis, MO, cat. D2650) at 800-fold the tested concentration and stored at -70 degrees C prior to their use. All drugs and investigational agents were tested over a range starting from a high concentration at or near the clinical Cmax and decreasing in half-log increments. If the clinical Cmax for an agent had not been determined, the highest concentration tested was 10 microM.
Cell Culture. All cells were maintained in an incubator at 37 degrees C and 5% CO2 with 95% humidity. The PDC lines were cultured according to standard operating procedures established by the NCI PDMR (https://pdmr.cancer.gov/sops/default.htm). All PDCs were thawed and cultured in Matrigel-coated flasks prepared with a working solution of 1X Ham's F-12 nutrient mix, without supplementation (Invitrogen, Waltham, MA, cat. 11765054), 100 U/mL penicillin-streptomycin (Invitrogen, cat. 15140122), and 2.5% Matrigel (Corning Inc., Corning, NY, cat. 354248) for the first three passages. The 354836-022-R-J1-PDC, 475296-252-R-J1-PDC, and 997726-040-R-J2-PDC lines were cultured in 6A media, which includes advanced DMEM/F-12 (Thermo Fisher Scientific, cat. 12634028), 10 mM HEPES (Thermo Fisher Scientific, cat. 15630080), 1X GlutaMAX supplement (Thermo Fisher Scientific, cat. 35050061), 0.1 mg/mL primocin (InvivoGen, San Diego, CA, cat. ant-pm-2), 10% defined fetal bovine serum, heat inactivated (HyClone Laboratories Inc., Logan, UT, cat. SH30070.03HI), 50% L-WRN conditioned media (ATCC, cat. CRL-3276), 1.25 mM N-Acetyl-L-cysteine (Sigma-Aldrich, cat. A9165), 10 mM nicotinamide (Sigma-Aldrich, cat. N0636), 1X B-27 supplement (Thermo Fisher Scientific, cat. 17504044), 1X N-2 supplement (Thermo Fisher Scientific, cat. 17502048), and 10 microM Y-27632 dihydrochloride (Tocris Bioscience, Bristol, United Kingdom, cat. 1254). The 624824-186-R-J2-PDC line was cultured in 6C/Colon 1B media, which includes all 6A media components plus 50 ng/mL human EGF recombinant protein (Thermo Fisher Scientific, cat. PHG0311). […]

[1] = second compound 0.00316 µM, first compound 0.0316 µM
[2] = second compound 0.00316 µM, first compound 0.1 µM
[3] = second compound 0.00316 µM, first compound 0.316 µM
[4] = second compound 0.00316 µM, first compound 1 µM
[5] = second compound 0.00316 µM, first compound 3.16 µM
[6] = second compound 0.00316 µM, first compound 10 µM
[7] = second compound 0.01 µM, first compound 0.0316 µM
[8] = second compound 0.01 µM, first compound 0.1 µM
[9] = second compound 0.01 µM, first compound 0.316 µM
[10] = second compound 0.01 µM, first compound 1 µM
[11] = second compound 0.01 µM, first compound 3.16 µM
[12] = second compound 0.01 µM, first compound 10 µM
[13] = second compound 0.0316 µM, first compound 0.0316 µM
[14] = second compound 0.0316 µM, first compound 0.1 µM
[15] = second compound 0.0316 µM, first compound 0.316 µM
[16] = second compound 0.0316 µM, first compound 1 µM
[17] = second compound 0.0316 µM, first compound 3.16 µM
[18] = second compound 0.0316 µM, first compound 10 µM
[19] = second compound 0.1 µM, first compound 0.0316 µM
[20] = second compound 0.1 µM, first compound 0.1 µM
[21] = second compound 0.1 µM, first compound 0.316 µM
[22] = second compound 0.1 µM, first compound 1 µM
[23] = second compound 0.1 µM, first compound 3.16 µM
[24] = second compound 0.1 µM, first compound 10 µM
[25] = second compound 0.316 µM, first compound 0.0316 µM
[26] = second compound 0.316 µM, first compound 0.1 µM
[27] = second compound 0.316 µM, first compound 0.316 µM
[28] = second compound 0.316 µM, first compound 1 µM
[29] = second compound 0.316 µM, first compound 3.16 µM
[30] = second compound 0.316 µM, first compound 10 µM
[31] = second compound 1 µM, first compound 0.0316 µM
[32] = second compound 1 µM, first compound 0.1 µM
[33] = second compound 1 µM, first compound 0.316 µM
[34] = second compound 1 µM, first compound 1 µM
[35] = second compound 1 µM, first compound 3.16 µM
[36] = second compound 1 µM, first compound 10 µM
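Further: spheroids exposed to agents for seven days before readout.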

CC(Cn1ccc(-c2ccc(C#N)c(Cl)c2)n1)NC(=O)c1cc(C(C)O)[nH]n1 (centres undefined) + CC(Nc1ccc2c(c1)OCCn1cc(N3C(=O)OCC3C(F)F)nc1-2)C(N)=O
IC50 (second compound 0.00316 µM): > 10 µM | IC50 (second compound 0.01 µM): > 10 µM | IC50 (second compound 0.0316 µM): > 10 µM | IC50 (second compound 0.1 µM): > 10 µM | IC50 (second compound 0.316 µM): > 10 µM | IC50 (second compound 1 µM): > 10 µM | viability, T/C [1]: 110% | viability, T/C [2]: 96.5% | viability, T/C [3]: 93.9% | viability, T/C [4]: 83.8% | viability, T/C [5]: 106% | viability, T/C [6]: 95.2% | viability, T/C [7]: 101% | viability, T/C [8]: 94% | viability, T/C [9]: 98.8% | viability, T/C [10]: 88.4% | viability, T/C [11]: 98.4% | viability, T/C [12]: 103% | viability, T/C [13]: 87.1% | viability, T/C [14]: 102% | viability, T/C [15]: 91.3% | viability, T/C [16]: 90.9% | viability, T/C [17]: 97.5% | viability, T/C [18]: 103% | viability, T/C [19]: 84.6% | viability, T/C [20]: 93.4% | viability, T/C [21]: 101% | viability, T/C [22]: 90.9% | viability, T/C [23]: 95.3% | viability, T/C [24]: 98.4% | viability, T/C [25]: 84% | viability, T/C [26]: 107% | viability, T/C [27]: 91% | viability, T/C [28]: 89.7% | viability, T/C [29]: 90.8% | viability, T/C [30]: 89.5% | viability, T/C [31]: 92% | viability, T/C [32]: 83.1% | viability, T/C [33]: 87.9% | viability, T/C [34]: 93.5% | viability, T/C [35]: 80.6% | viability, T/C [36]: 83.4%

CC1(C)CCC(Nc2ncc(C(F)(F)F)c(-c3c[nH]c4c(P(C)(C)=O)c(C#N)ccc34)n2)CN1 (centres undefined) + COc1c(OCCCN2CCOCC2)ccc2c3n(c(=NC(=O)c4cnc(N)nc4)nc12)CCN3
IC50 (second compound 0.00316 µM): > 10 µM | IC50 (second compound 0.01 µM): > 10 µM | IC50 (second compound 0.0316 µM): > 10 µM | IC50 (second compound 0.1 µM): 7.77 µM | IC50 (second compound 0.316 µM): 5.48 µM | IC50 (second compound 1 µM): 1.4 µM | viability, T/C [1]: 91.7% | viability, T/C [2]: 93.5% | viability, T/C [3]: 115% | viability, T/C [4]: 130% | viability, T/C [5]: 147% | viability, T/C [6]: 63.2% | viability, T/C [7]: 101% | viability, T/C [8]: 96% | viability, T/C [9]: 112% | viability, T/C [10]: 119% | viability, T/C [11]: 140% | viability, T/C [12]: 52.2% | viability, T/C [13]: 85.3% | viability, T/C [14]: 86.7% | viability, T/C [15]: 95% | viability, T/C [16]: 103% | viability, T/C [17]: 125% | viability, T/C [18]: 56.1% | viability, T/C [19]: 79.9% | viability, T/C [20]: 85.4% | viability, T/C [21]: 91.7% | viability, T/C [22]: 82% | viability, T/C [23]: 98.5% | viability, T/C [24]: 39.4% | viability, T/C [25]: 69.1% | viability, T/C [26]: 76.8% | viability, T/C [27]: 72% | viability, T/C [28]: 78.1% | viability, T/C [29]: 74.3% | viability, T/C [30]: 23.7% | viability, T/C [31]: 57.4% | viability, T/C [32]: 50.5% | viability, T/C [33]: 49.8% | viability, T/C [34]: 54.9% | viability, T/C [35]: 44.2% | viability, T/C [36]: 9.59%
